Measurements published in patent US20160083391A1, “TRICYCLIC PIPERAZINE DERIVATIVE” (Sunovion Pharmaceuticals Inc., priority 2014, published 2016).

System: PDE1
Test: In vitro HTRF PDE1 inhibition assay
Type: biochemical
Conditions: HTRF cGMP assay, 100 nM cyclic GMP, PDE (1A3, 1B or 1C) with calmodulin, 45 minutes at 37° C.; isoform of the tabulated values not stated
Source text: An exemplary procedure for the in vitro Homogenous Time Resolved Fluorescence assay, which can be used to determine the inhibitory action of compounds of the invention toward. PDE1 or its isoforms, follows.
The HTRF PDE1 assay utilized the HTRF (Homogenous Time Resolved Fluorescence) technology, which is based on the competition between unlabeled cyclic nucleotide and cyclic nucleotide labeled with XL665 for the binding to cyclic nucleotide-specific antibody labeled with cryptate. The HTRF signal is thus inversely proportional to the concentration of cyclic nucleotide being measured. Since phosphodiesterases break down cyclic nucleotides the HTRF signal was used to determine PDE activity.
The Cisbio cGMP HTRF assay kit (Cat no: 62GM2PEC) was utilized. Cyclic GMP was diluted to 200 nM in HTRF assay buffer (1 mM CaCl2, 10 mM MgCl2, 10 mM Tris-HCl, 0.1% BSA, pH7.4). 10 μl of compound or DMSO was diluted in 200 nM cyclic GMP solution and added to wells of a 96 well white plate to give 100 nM cyclic GMP in 1% DMSO final concentration. PDE (1A3, 1B or 1C) was diluted to 2× working concentration in HTRF assay buffer with […] Calmodulin, and 10 μl was added to initiate the reaction. The plate was then incubated for 45 minutes at 37° C. d2-Labelled cyclic GMP and anti-cGMP cryptate were diluted in 50 mM phosphate buffer, 0.8M KF, 1% Triton X100, 0.2% BSA, pH7.0. Following incubation 10 μl d2-cGMP, then 10 μl anti cGMP cryptate were added to each well and the plate was incubated for 45 minutes at room temperature. The plate was then read on Perkin Elmer Victor at 2 different FRET readings ex/emm 340 nm/665 nm and 340 nm/615 nm.
Compounds having an IC50 of <1 μM, are denoted as +++. Compounds having an IC50 of 1-10 μM, are denoted as ++. Compounds having an IC50 of >10 μM, are denoted as +.

Row | Structure (SMILES) | IC50 [µM]
1 | COc1ccc(CN2CCc3nc4c(cnn4C(C)C)c(=O)n3CC2)cc1 [Compound I-157, 1-Isopropyl-8-(4-methoxybenzyl)-7,8,9,10-tetrahydro-1H-pyrazolo[3′,4′:4,5]pyrimido[1,2-d][1,4]diazepin-4(6H)-one] | > 10
2 | CC(C)CC1Cn2c(nc3c(cnn3C(C)C)c2=O)CN1c1ccc(Cl)cc1 (racemic) [Compound I-172, (±)-8-(4-Chlorophenyl)-7-isobutyl-1-isopropyl-6,7,8,9-tetrahydropyrazino[1,2-a]pyrazolo[3,4-d]pyrimidin-4(1H)-one] | < 1
3 | CCCn1ncc2c(=O)n3c(nc21)CN(Cc1ccc(OC)cc1)CC3 [Compound I-164, 8-(4-Methoxybenzyl)-1-propyl-6,7,8,9-tetrahydropyrazino[1,2-a]pyrazolo[3,4-d]pyrimidin-4(1H)-one] | 1 to 10
4 | CC1NCCn2c1nc1c(cnn1-c1ccccc1)c2=O (racemic) [Compound I-5, (±)-9-Methyl-1-phenyl-6,7,8,9-tetrahydropyrazino[1,2-a]pyrazolo[3,4-d]pyrimidin-4(1H)-one] | > 10
5 | O=c1c2cnc(C3CC3)n2nc2n1CCN(c1ccc(Cl)cc1)C2 [Compound I-251, 7-(4-Chlorophenyl)-3-cyclopropyl-8,9-dihydro-6H-imidazo[5,1-f]pyrazino[2,1-c][1,2,4]triazin-11(7H)-one] | < 1
6 | CC(C)c1nn(C)c2c(=O)n3c(nc12)C(Cc1ccccc1)N(Cc1ccccc1)CC3 (racemic) [Compound I-48, (±)-5,6-Dibenzyl-3-isopropyl-1-methyl-5,6,7,8-tetrahydropyrazino[1,2-a]pyrazolo[4,3-d]pyrimidin-10(1H)-one] | > 10
7 | CC(C)c1nnc2c(=O)n3c(nn12)CN(Cc1ccncc1)CC3 [Compound I-245, 3-Isopropyl-7-(pyridin-4-ylmethyl)-8,9-dihydro-6H-pyrazino[2,1-c][1,2,4]triazolo[3,4-f][1,2,4]triazin-11(7H)-one] | > 10
8 | CC(C)c1nn(C)c2c(=O)n3c(nc12)C(Cc1ccccc1)N(C)CC3 (racemic) [Compound I-42, (±)-5-Benzyl-3-isopropyl-1,6-dimethyl-5,6,7,8-tetrahydropyrazino[1,2-a]pyrazolo[4,3-d]pyrimidin-10(1H)-one] | > 10
9 | CC1c2nc3c(cnn3C(C)C)c(=O)n2CCN1C (racemic) [Compound I-21, (±)-1-Isopropyl-8,9-dimethyl-6,7,8,9-tetrahydropyrazino[1,2-a]pyrazolo[3,4-d]pyrimidin-4(1H)-one] | > 10
10 | COc1ccccc1CN1CCn2c(nc3c(cnn3CC(C)C)c2=O)C1 [Compound I-77, 1-Isobutyl-8-(2-methoxybenzyl)-6,7,8,9-tetrahydropyrazino[1,2-a]pyrazolo[3,4-d]pyrimidin-4(1H)-one] | 1 to 10
11 | CC(C)Cn1ncc2c(=O)n3c(nc21)CN(Cc1cccc(Cl)c1)CC3 [Compound I-71, 8-(3-Chlorobenzyl)-1-isobutyl-6,7,8,9-tetrahydropyrazino[1,2-a]pyrazolo[3,4-d]pyrimidin-4(1B)-one] | < 1
12 | O=c1c2cnn(-c3ccccc3)c2nc2n1CCNC2 [Compound I-2, 1-Phenyl-6,7,8,9-tetrahydropyrazino[1,2-a]pyrazolo[3,4-d]pyrimidin-4(1H)-one] | > 10
13 | CC1CN(Cc2ccccc2)Cc2nc3c(cnn3C3CCCC3)c(=O)n21 (racemic) [Compound I-101, (±)-8-Benzyl-1-cyclopentyl-6-methyl-6,7,8,9-tetrahydropyrazino[1,2-a]pyrazolo[3,4-d]pyrimidin-4(1H)-one] | 1 to 10
14 | O=c1c2cnn(C3CCC3)c2nc2n1CCN(c1ccc(Cl)cc1)C2 [Compound I-246, 8-(4-Chlorophenyl)-1-cyclobutyl-6,7,8,9-tetrahydropyrazino[1,2-a]pyrazolo[3,4-d]pyrimidin-4(1H)-one] | 1 to 10
15 | COCCn1ncc2c(=O)n3c(nc21)CN(Cc1ccc(Cl)cc1)CC3 [Compound I-159, 8-(4-Chlorobenzyl)-1-(2-methoxyethyl)-6,7,8,9-tetrahydropyrazino[1,2-a]pyrazolo[3,4-d]pyrimidin-4(1H)-one] | 1 to 10
16 | CN1CCn2c(nc3c(cnn3C)c2=O)C1Cc1ccccc1 (racemic) [Compound I-24, (±)-9-Benzyl-1,8-dimethyl-6,7,8,9-tetrahydropyrazino[1,2-a]pyrazolo[3,4-d]pyrimidin-4(1H)-one] | > 10
17 | COCCn1ncc2c(=O)n3c(nc21)CN(c1ccc(Cl)cc1)CC3 [Compound I-256, 8-(4-Chlorophenyl)-1-(2-methoxyethyl)-6,7,8,9-tetrahydropyrazino[1,2-a]pyrazolo[3,4-d]pyrimidin-4(1H)-one] | 1 to 10
18 | CC(C)n1ncc2c(=O)n3c(nc21)CN(Cc1ccc(Cl)c(Cl)c1)CC3 [Compound I-169, 8-(3,4-Dichlorobenzyl)-1-isopropyl-6,7,8,9-tetrahydropyrazino[1,2-a]pyrazolo[3,4-d]pyrimidin-4(1H)-one] | < 1
19 | CC(C)n1ncc2c(=O)n3c(nc21)C(c1ccccc1)N(C)CC3 (racemic) [Compound I-60, (±)-1-Isopropyl-8-methyl-9-phenyl-6,7,8,9-tetrahydropyrazino[1,2-a]pyrazolo[3,4-d]pyrimidin-4(1H)-one] | > 10
20 | CCCn1ncc2c(=O)n3c(nc21)CN(Cc1cccc(Cl)c1)CC3 [Compound I-166, 8-(3-Chlorobenzyl)-1-propyl-6,7,8,9-tetrahydropyrazino[1,2-a]pyrazolo[3,4-d]pyrimidin-4(1H)-one] | 1 to 10

Second part, the compound after the results:

Row | IC50 [µM] | Structure (SMILES)
21 | 1 to 10 | COCCn1ncc2c(=O)n3c(nc21)CN(c1ccc(Cl)c(Cl)c1)CC3 [Compound I-257, 8-(3,4-Dichlorophenyl)-1-(2-methoxyethyl)-6,7,8,9-tetrahydropyrazino[1,2-a]pyrazolo[3,4-d]pyrimidin-4(1H)-one]
22 | > 10 | CC(C)c1n[nH]c2c(=O)n3c(nc12)CN(Cc1ccccc1)CC3 [Compound I-43, 6-Benzyl-3-isopropyl-5,6,7,8-tetrahydropyrazino[1,2-a]pyrazolo[4,3-d]pyrimidin-10(1H)-one]
23 | > 10 | CC(C)c1nn(C)c2c(=O)n3c(nc12)C(C)NCC3 (racemic) [Compound I-14, (±)-3-Isopropyl-1,5-dimethyl-5,6,7,8-tetrahydropyrazino[1,2-a]pyrazolo[4,3-d]pyrimidin-10(1H)-one]
24 | < 1 | O=c1c2cnn(C3CCCC3)c2nc2n1CCN(Cc1cccc(Cl)c1)C2 [Compound I-72, 8-(3-Chlorobenzyl)-1-cyclopentyl-6,7,8,9-tetrahydropyrazino[1,2-a]pyrazolo[3,4-d]pyrimidin-4(1H)-one]
25 | 1 to 10 | CC(C)c1nnc2c(=O)n3c(nn12)CN(Cc1ccccc1)CC3 [Compound I-223, 7-Benzyl-3-isopropyl-8,9-dihydro-6H-pyrazino[2,1-c][1,2,4]triazolo[3,4-f][1,2,4]triazin-11(7H)-one]
26 | < 1 | COc1cccc(N2CCn3c(nc4c(cnn4C4CCCC4)c3=O)C2)c1 [Compound I-98, 1-Cyclopentyl-8-(3-methoxyphenyl)-6,7,8,9-tetrahydropyrazino[1,2-a]pyrazolo[3,4-d]pyrimidin-4(1H)-one]
27 | > 10 | CC(C)c1nn(C)c2c(=O)n3c(nc12)C(C)N(C)CC3 (racemic) [Compound I-41, (±)-3-Isopropyl-1,5,6-trimethyl-5,6,7,8-tetrahydropyrazino[1,2-a]pyrazolo[4,3-d]pyrimidin-10(1H)-one]
28 | > 10 | O=c1c2cnn(-c3ccccc3)c2nc2n1CCN(Cc1ccccc1)C2Cc1ccccc1 (racemic) [Compound I-37, (±)-8,9-Dibenzyl-1-phenyl-6,7,8,9-tetrahydropyrazino[1,2-a]pyrazolo[3,4-d]pyrimidin-4(1H)-one]
29 | < 1 | COc1ccccc1CN1CCn2c(nc3c(cnn3C3CCCC3)c2=O)C1 [Compound I-78, 1-Cyclopentyl-8-(2-methoxybenzyl)-6,7,8,9-tetrahydropyrazino[1,2-a]pyrazolo[3,4-d]pyrimidin-4(1H)-one]
30 | > 10 | O=c1c2cn[nH]c2nc2n1CCN(Cc1ccccc1)C2Cc1ccccc1 (racemic) [Compound I-34, (±)-8,9-Dibenzyl-6,7,8,9-tetrahydropyrazino[1,2-a]pyrazolo[3,4-d]pyrimidin-4(1H)-one]
31 | < 1 | CC1Cn2c(nc3c(cnn3C(C)C)c2=O)CN1Cc1ccccc1 (racemic) [Compound I-105, (±)-8-Benzyl-1-isopropyl-7-methyl-6,7,8,9-tetrahydropyrazino[1,2-a]pyrazolo[3,4-d]pyrimidin-4(1H)-one]
32 | < 1 | COc1ccc(CN2CCn3c(nc4c(cnn4CC(C)C)c3=O)C2)cc1 [Compound I-83, 1-Isobutyl-8-(4-methoxybenzyl)-6,7,8,9-tetrahydropyrazino[1,2-a]pyrazolo[3,4-d]pyrimidin-4(1H)-one]
